Data reported in patent US9381176B2, “E-prostanoid receptor, Ptger3, as a novel anti-diabetic therapeutic target” (Wisconsin Alumni Research Foundation, priority 2012, dated 2016).
“Also recorded” adds a separate entry of the source. No end group written: not given here.

Tests used:
[1] = diabetic patients treated with sitagliptin; cited from earlier work
Ins-1 832/3 cells = assay: INS1 cell insulin secretion assay; type: cell-based, rat; settings: for minimum dose yielding maximum effect on GSIS inhibition: 2 hour stimulation
Description: INS1 Cell Culture and Insulin Secretion Assays. The glucose responsive rat beta cell line, INS1 (832/3) was cultured in RPMI 1640 (11.1 mM glucose) supplemented with NaHCO3, HEPES, heat-inactivated FBS, L-glutamine, sodium pyruvate and β-mercaptoethanol. 3 days prior to assay, 1×10^5 cells were plated per well in 96-well cell culture plates. Twenty-four hours prior to the assay, the medium was aspirated and fresh growth medium added. On the day of the assay, confluent Ins-1 832/3 cells were washed once with sterile PBS and pre-incubated for 2 hours in KRBB supplemented with 25 mM HEPES and containing 1.7 mM glucose and 0.2% BSA. Cells were then stimulated for 2 hours with KRBB containing 16.7 mM glucose and the desired concentrations of agonists/antagonists. Secretion buffer was collected and the secreted and cellular insulin content determined by acid/ethanol extraction, as described above.
Insulin secretion assays in Ins-1 832/3 cells were performed wherein the dose of PGE2 (a physiological agonist of EP3) or sulprostone (an EP3-selective agonist) were varied over a wide concentration range. […] The minimum dose of sulprostone yielding maximum effect on GSIS inhibition was approximately 10 nM and the minimum dose of PGE2 was approximately 50 nM.

[2] = tested on: islets isolated from 10-week-old BTBR lean and Ob mice; assay: Mouse islet glucose-stimulated insulin secretion (GSIS) assay; type: cell-based; settings: for effect on GSIS from islets obtained from diabetic BTBR mice: diabetic (ob/ob) BTBR islets; for effect on GSIS from islets obtained from diabetic BTBR mice / effect on GSIS from islets obtained from non-diabetic mice: 16.7 mM glucose, PGE1 5 μM or L-798,106 20 μM, 1 hour static incubation; for effect on GSIS from islets obtained from non-diabetic mice: non-diabetic (lean) BTBR islets
Description: Mouse Islet Isolation & Culture. Intact pancreatic islets were isolated from 10-12-week-old BTBR lean and ob/ob mice using a known collagenase digestion protocol (Rabaglia et al., Am. J. Physiology Endo. Metab. 289:E218-224 (2005)). Instead of CO2 asphyxiation and decapitation, mice were Avertin-anesthetized and exsanguinated immediately prior to cannulation of the bile duct and inflation of the pancreas with a collagenase solution. Islets were cultured overnight in 5 ml RPMI 1640 containing 11.1 mM glucose and 10% heat-inactivated FBS with 1X penicillin/streptomycin prior to in vitro assay for insulin secretion and PGE2 production.
Mouse Islet Insulin Secretion and PGE2 Production Assays. Insulin secretion assays were performed in mesh-bottomed glass tubes essentially as in Rabaglia et al. (2005). Modifications include: 4 islets/replicate were picked into Krebs Ringer Bicarbonate Buffer (KRBB) containing 1.7 mM glucose and 0.25% BSA. Replicates were pre-incubated for 1 hour in fresh 1.7 mM KRBB before being transferred to stimulation medium containing the desired concentrations of glucose and drug treatment (e.g., PGE1, PGE2, and sulprostone [Sigma Aldrich] or L-798,106 [Tocris]). Insulin secretion as a percentage of total insulin content was determined using an in-house insulin ELISA, as described above.
As a first step in testing their hypothesis that the EP3 signaling pathway contributes to the pathophysiology of T2D, the Inventors subjected islets isolated from 10-week-old BTBR lean and Ob mice to treatment with a selective agonist (PGE1) or specific antagonist (L-798,106) of the EP3 receptor to monitor the impact on GSIS. Briefly, mouse islets were incubated in medium containing 1.7 mM glucose (non-stimulatory towards insulin secretion) or 16.7 mM glucose (stimulatory towards insulin secretion), with and without the addition of 5 μM PGE1 or 20 μM L-798,106.
GLP-1-based therapies are used in T2D therapy. To test the possibility that EP3 antagonism can augment the effect of GLP-1 agonism, islets from diabetic BTBR mice were treated with stimulatory glucose, with and without the addition of 50 nM GLP-1 and/or 10 μM […], and the level of insulin secretion monitored (FIG. 9).

[3] = tested on: human islets from non-diabetic or T2D cadaveric donors; assay: Human islet insulin secretion assay; type: cell-based
Description: Human Islet Culture and Insulin Secretion Assays. Human islets were obtained through the Integrated Islet Distribution Program. On the day of arrival, islets were cultured overnight in RPMI containing 8 mM glucose, 10% heat-inactivated FBS, and 1X penicillin/streptomycin to confirm viability and sterility. Islets were cultured in 6 cm Petri dishes with approximately 1000 islet equivalents plated per dish. Islets were hand-picked and incubated an additional day in medium containing the desired concentration of glucose and/or xylitol before assaying for insulin secretion. Insulin secretion assays on human islets were performed identically to those described for mouse islets, except that 10 islets were used per replicate instead of 4.
Non-diabetic and T2D human islets were cultured for 48 hours in 8 mM glucose. A subset of the non-diabetic donor islets were also incubated with 0.5 mM xylitol, a glucose analog that is non-metabolizable beyond glucose-6 phosphate, during the final 24 hour culture period. […] Xylitol activates the FoxO1 transcription factor via glucose-6 phosphate formation, providing an alternative mechanism for up-regulating gene expression. Following 48 hours in culture, cellular insulin secretion was stimulated for 45 minutes with 16.7 mM glucose in the absence and presence of 10 μM L-798,106. Secreted insulin was normalized to total insulin content in order to determine the fractional release of insulin. Data from each human islet set was normalized to its own response in 16.7 mM glucose alone to isolate the effect of L-798,106 on GSIS (FIG. 6).

## N[C@@H](CC(=O)N1CCn2c(nnc2C(F)(F)F)C1)Cc1cc(F)c(F)cc1F [sitagliptin]
[1]
  diabetic patients who fail to achieve HbAlc target of <7%: 35-60%

## CS(=O)(=O)NC(=O)CCC/C=C\C[C@H]1C(=O)C[C@@H](O)[C@@H]1/C=C/[C@@H](O)COc1ccccc1 [sulprostone]
Ins-1 832/3 cells; 16.7 mM glucose
  minimum dose yielding maximum effect on GSIS inhibition: approximately 10 nM

## CCCCC[C@H](O)/C=C/[C@H]1[C@H](O)CC(=O)[C@@H]1C/C=C\CCCC(=O)O [PGE2]
Ins-1 832/3 cells; 16.7 mM glucose, 2 hour static incubation, read-out: approximate IC50 for suppression of insulin secretion
  IC50: ~10 nM
Ins-1 832/3 cells; 16.7 mM glucose
  minimum dose yielding maximum effect on GSIS inhibition: approximately 50 nM
Ins-1 832/3 cells; 16.7 mM glucose, increasing concentrations, 2 hour static incubation
  maximal reduction in insulin secretion: ~80%
Ins-1 832/3 cells; 16.7 mM glucose, wide concentration range
  inhibition of GSIS (dose dependence): dose-dependently suppresses insulin secretion; also recorded: dose-dependently inhibited GSIS

## CCCCC[C@H](O)/C=C/[C@H]1[C@H](O)CC(=O)[C@@H]1CCCCCCC(=O)O [PGE1]
[2]
  effect on GSIS from islets obtained from diabetic BTBR mice: significantly altered insulin secretion; also recorded: reduced GSIS
  effect on GSIS from islets obtained from non-diabetic mice: had no effect

## glucagon-like peptide 1 (HAEGTFTSDVSSYLEGQAAKEFIAWLVKGR; ends and bridges not checked; UniProt P01275 98-127, looked up) [GLP-1, hormone glucagon-like peptide 1]
[2]; diabetic BTBR islets, 11.1 mM glucose, GLP-1 50 nM
  effect of GLP-1 alone on insulin secretion from diabetic BTBR islets: significant impact on insulin secretion

## COc1ccc(Br)cc1S(=O)(=O)NC(=O)/C=C/c1ccccc1Cc1ccc2ccccc2c1 [L-798,106, (2E)-N-[(5-bromo-2-methoxyphenyl)sulfonyl]-3-[2-(2-naphthalenylmethyl)phenyl]-2-propenamide]
[3]; T2D donor islets, 16.7 mM glucose, L-798,106 20 μM / 10 μM, 45 minute static incubation
  effect on insulin secretion from diabetic (T2D) human islets: can enhance insulin secretion; also recorded: differed significantly from responses of non-diabetic islets
[3]; non-diabetic donors 5-7, cultured in 8 mM glucose, 16.7 mM glucose stimulation, 45 minute static incubation
  effect on insulin secretion from non-diabetic human islets: non-responsive
[3]; non-diabetic donors 5-7 incubated overnight in 8 mM glucose with 0.5 mM xylitol, 16.7 mM glucose stimulation, 45 minutes
  effect on insulin secretion from xylitol-incubated non-diabetic human islets: effective to promote glucose dependent insulin secretion; also recorded: differed significantly from responses of non-diabetic islets
[2]
  effect on GSIS from islets obtained from diabetic BTBR mice: significantly altered insulin secretion; also recorded: enhanced GSIS
  effect on GSIS from islets obtained from non-diabetic mice: had no effect on GSIS
[2]; diabetic BTBR-ob/ob islets, 11.1 mM glucose, GLP-1 50 nM plus L-798,106 10 μM
  effect on GLP-1 dependent insulin secretion from diabetic BTBR islets: augments GLP-1 dependent insulin secretion
Ins-1 832/3 cells; Rattus norvegicus, INS1, in the presence of 50 nM PGE2 (maximal inhibitory concentration), 16.7 mM glucose, 2 hour static incubation, read-out: approximate EC50 for restoring insulin secretion
  EC50: ~100 nM
Ins-1 832/3 cells; in the presence of 10 nM sulprostone, stimulatory glucose, dose response of L-798,106
  reversal of sulprostone-dependent suppression of GSIS: reversed in a dose-dependent manner
Ins-1 832/3 cells; in the presence of 50 nM PGE2, increasing concentrations of L-798,106, 16.7 mM glucose
  reversal of PGE2-dependent suppression of insulin secretion: restored maximal insulin secretion; also recorded: reversed in a dose-dependent manner
